Drawing on paper doi:10.1101/2022.05.31.494145v5 (biorxiv, 2024), this text covers Kd for four molecules.

One assay deals with T1, DENV 3 NS5 MTase (dengue virus type 3, UniProt A9LID6).
T1 sequence (A9LID6 2491-2755 limits assumed): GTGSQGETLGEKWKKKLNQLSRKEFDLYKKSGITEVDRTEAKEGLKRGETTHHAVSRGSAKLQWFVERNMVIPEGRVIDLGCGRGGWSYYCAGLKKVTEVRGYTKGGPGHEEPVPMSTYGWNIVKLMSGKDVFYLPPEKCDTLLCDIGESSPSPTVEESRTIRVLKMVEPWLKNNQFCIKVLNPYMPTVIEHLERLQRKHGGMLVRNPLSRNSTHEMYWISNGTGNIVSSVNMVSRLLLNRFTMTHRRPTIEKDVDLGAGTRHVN
In words: tryptophan fluorescence quenching. Type of assay: binding.

For another assay, the target named is T2, CHIKV nsP1 (Chikungunya virus strain S27-African prototype, UniProt Q8JUX6).
T2 sequence (Q8JUX6 1-535): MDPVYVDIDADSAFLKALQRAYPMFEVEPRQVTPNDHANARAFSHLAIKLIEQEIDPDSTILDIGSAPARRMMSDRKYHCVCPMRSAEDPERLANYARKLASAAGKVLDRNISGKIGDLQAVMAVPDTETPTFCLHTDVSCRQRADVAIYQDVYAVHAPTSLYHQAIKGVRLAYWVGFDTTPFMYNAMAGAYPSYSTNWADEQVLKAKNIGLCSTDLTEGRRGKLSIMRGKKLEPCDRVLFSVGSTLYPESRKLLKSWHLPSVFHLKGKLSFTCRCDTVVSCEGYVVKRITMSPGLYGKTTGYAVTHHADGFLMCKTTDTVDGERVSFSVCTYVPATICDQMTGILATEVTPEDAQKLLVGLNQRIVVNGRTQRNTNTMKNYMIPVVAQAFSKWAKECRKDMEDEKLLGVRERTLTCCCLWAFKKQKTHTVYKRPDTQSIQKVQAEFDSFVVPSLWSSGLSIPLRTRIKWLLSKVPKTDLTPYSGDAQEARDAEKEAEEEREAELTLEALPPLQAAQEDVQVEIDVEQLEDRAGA
The assay is described as follows: tryptophan fluorescence quenching. Type of assay: binding.

`O=c1c(O)c(-c2ccc(O)cc2)oc2c(O)c(O)cc(O)c12` [HC, herbacetin]: the values for the dissociation constant (Kd) on DENV 3 NS5 MTase and at CHIKV nsP1 were 13.3 ± 2.69 µM and 6.52 ± 0.55 µM, respectively.
As to `O=C(/C=C/c1ccc(O)c(O)c1)OCCc1ccccc1` [CAPE, caffeic acid phenethyl ester], the figures for the dissociation constant (Kd) on DENV 3 NS5 MTase and at CHIKV nsP1 were 37.9 ± 6.32 µM and 30.6 ± 5.33 µM, respectively.
For the molecule `C[S+](CC[C@H](N)C(=O)O)C[C@H]1O[C@@H](n2cnc3c(N)ncnc32)[C@H](O)[C@@H]1O` (some centres unmarked) [SAM], the dissociation constant Kd at DENV 3 NS5 MTase turned out to be 6.67 ± 2.57 µM; at CHIKV nsP1, 10.9 ± 5.15 µM.
The like results for `Nc1nc2c(ncn2[C@@H]2O[C@H](COP(=O)(O)OP(=O)(O)OP(=O)(O)O)[C@@H](O)[C@H]2O)c(=O)[nH]1` [GTP] were, in that order, 3.03 ± 1 µM and 169 ± 21.3 µM.

The term Kd denotes a measure of binding affinity in units of concentration.
